# Source: patent US7109296B2, “Human 5-HT3-C protein” (Ortho-McNeil Pharmaceutical, Inc., priority 1999, dated 2006)
# Where a SMILES comes first, the peptide text is derived from it.
# Target: T1, human 5-HT3-C (Homo sapiens, UniProt Q8WXA8)
# T1 construct: Characterization of the Function of Protein Encoded by p5HT3CR in Xenopus oocvtes; expressed in transfected cells; host or cells: Xenopus laevis oocytes injected with in vitro transcribed cRNA (pGEM HE)
# T1 sequence (Q8WXA8 28-447): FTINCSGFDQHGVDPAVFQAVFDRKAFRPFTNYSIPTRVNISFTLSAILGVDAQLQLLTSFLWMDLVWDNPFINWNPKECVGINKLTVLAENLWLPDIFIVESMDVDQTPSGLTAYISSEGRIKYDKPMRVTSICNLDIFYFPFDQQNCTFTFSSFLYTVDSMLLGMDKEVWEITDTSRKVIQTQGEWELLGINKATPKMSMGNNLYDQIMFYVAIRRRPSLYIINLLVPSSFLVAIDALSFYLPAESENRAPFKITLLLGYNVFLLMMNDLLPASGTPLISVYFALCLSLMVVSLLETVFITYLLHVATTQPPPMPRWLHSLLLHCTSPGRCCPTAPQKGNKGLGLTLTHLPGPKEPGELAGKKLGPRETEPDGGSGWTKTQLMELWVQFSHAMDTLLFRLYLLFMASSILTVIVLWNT
# Assay: Two-electrode voltage clamp, Xenopus oocytes injected with 5-HT3-C cRNA alone
# Assay type: cell-based
# Conditions: 10 μM; oocytes injected with 33.3 ng 5-HT3-C cRNA
# Procedure: (§1) Characterization of the Function of Protein Encoded by p5HT3CR in Xenopus oocvtes Xenopus laevis oocytes were prepared and injected using standard methods previously described and known in the art (Fraser et al., 1993). Ovarian lobes from adult female Xenopus laevis (Nasco, Fort Atkinson, Wis.) were teased apart, rinsed several times in nominally Ca-free saline containing (in mM): NaCl 82.5, KCl 2.5, MgCl2 1, HEPES 5, adjusted to pH 7.0 with NaOH(OR-2), and gently shaken in OR-2 containing 0.2% collagenase Type 1 (ICN Biomedicals, Aurora, Ohio) for 2–5 hours. When approximately 50% of the follicular layers were removed, Stage V and VI oocytes were selected and rinsed in media consisting of 75% OR-2 and 25% ND-96. The ND-96 contained (in mM): NaCl 100, KCl 2, MgCl2 1, CaCl2 1.8, HEPES 5, Na pyruvate 2.5, gentamicin (50 ug/ml), adjusted to pH 7.0 with NaOH. […] For in vitro transcription, pGEM HE (Liman et al., 1992) containing human 5-HT3-A (Genbank D49394) or 5-HT3-C cDNA was linearized with NheI and transcribed with T7 RNA polymerase (Stratagene) in the presence of the cap analog m7G(5′)ppp(5′)G. The synthesized cRNA was purified with a Sephadex G-50 spin column. […] Control oocytes were injected with 50 nl of water. Oocytes were incubated for 2–14 days in ND-96 before analysis for expression of the human 5-HT3-C. Incubations and collagenase digestion were carried out at room temperature. Injected oocytes were maintained in 48 well cell culture clusters (Costar, Cambridge, Mass.) at 18° C. Whole cell agonist-induced currents were measured 1–14 days after injection with a conventional two-electrode voltage clamp (GeneClamp500, Axon Instruments, Foster City, Calif.) using standard methods previously described and known in the art (Dascal, 1987). The microelectrodes were filled with 3 M KCl, which had resistances of 1 and 2 MΩ. Cells were continuously perfused with ND96 at 10 ml/min at room temperature unless indicated. Membrane voltage was clamped at −70 mV unless indicated.
row,SMILES,effect of agonist (agonist-induced current)
1,NCCc1c[nH]cn1 [histamine],No effect
2,CC(=O)OCC[N+](C)(C)C [ACh],No effect

# Same assay, conditions: 100 μM; oocytes injected with 33.5 ng 5-HT3-C
row,effect of agonist (agonist-induced current),SMILES
1,No effect,"NCCc1ccc(O)c(O)c1 [DA, dopamine]"

# Same assay, conditions: 500 μM; oocytes injected with 33.5 ng 5-HT3-C
row,SMILES,effect of agonist (agonist-induced current)
1,CC(=O)OCC[N+](C)(C)C [ACh],No effect

# Same assay, conditions: 100 M; oocytes injected with 33.3 ng 5-HT3-C cRNA
row,effect of agonist (agonist-induced current),SMILES
1,No effect,NCC(=O)O [glycine]

# Same assay, conditions: >30 μM; oocytes injected with 33.3 ng 5-HT3-C cRNA
row,SMILES,effect of agonist (agonist-induced current)
1,NCCCC(=O)O [GABA],No effect

# Same assay, conditions: >100 μM; only 5-HT3-C cRNA (33.5 ng); n=5
row,SMILES,sensitivity of oocytes to neuroactive compound
1,NCCCC(=O)O [GABA],insensitive
2,O=C(O)Cc1c[nH]c2ccc(O)cc12 [5-hydroxyindolacetic acid],insensitive
3,NC(=O)Cc1c[nH]c2ccc(O)cc12 [5-hydroxyindole 3-acetamide],insensitive
4,NCCc1c[nH]c2ccccc12 [tryptamine],insensitive
5,CC(=O)N[C@@H](CS)C(=O)O [N-acetyl-L-cysteine],insensitive
6,NC[C@H](O)c1ccc(O)c(O)c1 [norepinephrine],insensitive
7,NCCc1ccccc1 [β-phenylethylamine],insensitive
8,COc1cc2c(CCNC(C)=O)c[nH]c2cc1O [6-hydroxymelatonin],insensitive
9,NCCS(=O)(=O)O [taurine],insensitive
10,CC(=O)OCC[N+](C)(C)C [ACh],insensitive
11,N=C(N)NCCCCN [agmatine],insensitive
12,NCCC(=O)O [β-alanine],insensitive
13,"N[C@H](CC(=O)O)C(=O)O [L-aspartate, L- and D-aspartate]",insensitive
14,CC(=O)N[C@@H](CC(=O)O)C(=O)N[C@@H](CCC(=O)O)C(=O)O [acetyl-aspartyl-L-glutamic acid] (Ac-Asp-Glu-OH),insensitive
15,N[C@@H]1CONC1=O [d-cycloserine],insensitive
16,N[C@@H](CCC(=O)O)C(=O)O [glutamate],insensitive
17,CC(=O)NCCc1c[nH]c2ccc(O)cc12 [N-acetyl serotonin],insensitive

# The remaining lines, values ahead:
row,sensitivity of oocytes to neuroactive compound,SMILES
1,insensitive,NCCc1ccc(O)cc1 [tyramine]
2,insensitive,N[C@@H](Cc1c[nH]c2ccccc12)C(=O)O [tryptophan]
3,insensitive,NC(=O)[C@@H](N)Cc1c[nH]c2ccccc12 [tryptophanamide]
4,insensitive,NCCc1c[nH]cn1 [histamine]
5,insensitive,O=C(O)c1cc2cc(O)ccc2[nH]1 [5-hydroxyindole 2-carboxylic acid]
6,insensitive,NCC(=O)O [glycine]
7,insensitive,COc1ccc2[nH]cc(CCNC(C)=O)c2c1 [melatonin]
8,insensitive,NCC(O)c1ccc(O)cc1 (centres unmarked) [octopamine]
9,insensitive,"NCCc1ccc(O)c(O)c1 [DA, dopamine]"
10,insensitive,NC/C=C\C(=O)O [cis-4 aminocrotonic acid]

# Target: T2, 5-HT3-C together with nicotinic ACh receptor a6 subunit (Homo sapiens, UniProt Q15825+Q8WXA8)
# T2 construct: Characterization of the Function of Protein Encoded by p5HT3CR in Xenopus oocvtes; expressed in transfected cells; host or cells: Xenopus laevis oocytes injected with cRNA
# Assay: Two-electrode voltage clamp, oocytes injected with 5-HT3-C together with nicotinic ACh receptor α6 subunit
# Assay type: cell-based
# Conditions: 500 μM; eight days after injection; 5-HT3-C 0.67 ng, a6 1 ng/oocyte
# Procedure: Characterization of the Function of Protein Encoded by p5HT3CR in Xenopus oocvtes Xenopus laevis oocytes were prepared and injected using standard methods previously described and known in the art (Fraser et al., 1993). Ovarian lobes from adult female Xenopus laevis (Nasco, Fort Atkinson, Wis.) were teased apart, rinsed several times in nominally Ca-free saline containing (in mM): NaCl 82.5, KCl 2.5, MgCl2 1, HEPES 5, adjusted to pH 7.0 with NaOH(OR-2), and gently shaken in OR-2 containing 0.2% collagenase Type 1 (ICN Biomedicals, Aurora, Ohio) for 2–5 hours. When approximately 50% of the follicular layers were removed, Stage V and VI oocytes were selected and rinsed in media consisting of 75% OR-2 and 25% ND-96. The ND-96 contained (in mM): NaCl 100, KCl 2, MgCl2 1, CaCl2 1.8, HEPES 5, Na pyruvate 2.5, gentamicin (50 ug/ml), adjusted to pH 7.0 with NaOH. […] For in vitro transcription, pGEM HE (Liman et al., 1992) containing human 5-HT3-A (Genbank D49394) or 5-HT3-C cDNA was linearized with NheI and transcribed with T7 RNA polymerase (Stratagene) in the presence of the cap analog m7G(5′)ppp(5′)G. The synthesized cRNA was purified with a Sephadex G-50 spin column. Oocytes were injected with 50 nl of the human serotonin 5-HT3-A receptor with or without the 5-HT3-C RNA (0.02 and 0.002–0.2 ng each) or other channel or receptor subunit. Control oocytes were injected with 50 nl of water. Oocytes were incubated for 2–14 days in ND-96 before analysis for expression of the human 5-HT3-C. Incubations and collagenase digestion were carried out at room temperature. Injected oocytes were maintained in 48 well cell culture clusters (Costar, Cambridge, Mass.) at 18° C. Whole cell agonist-induced currents were measured 1–14 days after injection with a conventional two-electrode voltage clamp (GeneClamp500, Axon Instruments, Foster City, Calif.) using standard methods previously described and known in the art (Dascal, 1987). The microelectrodes were filled with 3 M KCl, which had resistances of 1 and 2 MΩ. […]
# T2 sequence (Q15825 26-494, one chain of several): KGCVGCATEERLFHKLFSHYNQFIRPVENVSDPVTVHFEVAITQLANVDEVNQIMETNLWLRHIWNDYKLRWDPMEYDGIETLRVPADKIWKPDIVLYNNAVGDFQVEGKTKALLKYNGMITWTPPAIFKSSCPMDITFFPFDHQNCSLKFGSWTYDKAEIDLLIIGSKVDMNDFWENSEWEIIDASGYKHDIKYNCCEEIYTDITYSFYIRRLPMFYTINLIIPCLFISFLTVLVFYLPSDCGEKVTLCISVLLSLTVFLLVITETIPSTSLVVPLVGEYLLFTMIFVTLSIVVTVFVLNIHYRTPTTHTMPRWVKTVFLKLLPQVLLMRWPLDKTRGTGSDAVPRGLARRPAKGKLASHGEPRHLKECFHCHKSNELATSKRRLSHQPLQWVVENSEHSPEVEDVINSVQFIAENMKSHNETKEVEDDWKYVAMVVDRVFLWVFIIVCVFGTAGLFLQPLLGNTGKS
row,SMILES,responsiveness of oocytes to agonist
1,CC(=O)OCC[N+](C)(C)C [ACh],not responsive

# Target: T3, 5-HT3-B and 5-HT3-C (Homo sapiens, UniProt O95264+Q8WXA8)
# T3 construct: Characterization of the Function of Protein Encoded by p5HT3CR in Xenopus oocvtes; expressed in transfected cells; host or cells: Xenopus laevis oocytes co-injected with cRNAs
# T3 sequence (O95264 22-441): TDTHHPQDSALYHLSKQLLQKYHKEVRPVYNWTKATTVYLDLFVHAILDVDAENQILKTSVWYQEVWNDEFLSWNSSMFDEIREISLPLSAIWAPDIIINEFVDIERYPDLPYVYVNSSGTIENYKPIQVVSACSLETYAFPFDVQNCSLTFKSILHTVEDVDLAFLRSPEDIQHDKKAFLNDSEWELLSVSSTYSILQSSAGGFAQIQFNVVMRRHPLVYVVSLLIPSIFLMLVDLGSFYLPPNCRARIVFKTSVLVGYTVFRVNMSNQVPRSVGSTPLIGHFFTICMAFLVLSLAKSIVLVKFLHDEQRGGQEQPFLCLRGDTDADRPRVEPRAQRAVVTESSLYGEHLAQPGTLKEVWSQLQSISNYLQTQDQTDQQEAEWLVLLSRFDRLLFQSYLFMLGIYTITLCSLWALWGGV
# T3 sequence (Q8WXA8 28-447): T1 sequence (Q8WXA8 28-447)
# Assay: Two-electrode voltage clamp, oocytes co-injected with 5-HT3-B and 5-HT3-C
# Assay type: cell-based
# Conditions: 100 μM; 5-HT3-B 3.3 ng, 5-HT3-C 3.35 ng/oocyte
# Procedure: as §1
row,SMILES,responsiveness of oocytes to agonist
1,CNCCc1c[nH]c2ccc(O)cc12 [N-ω-methyl-5-HT],unresponsive

# Target: T4, 5-HT3-C together with nicotinic ACh receptor subunits β1, β2 and β3 (Homo sapiens, UniProt Q8WXA8)
# T4 construct: Characterization of the Function of Protein Encoded by p5HT3CR in Xenopus oocvtes; expressed in transfected cells; host or cells: Xenopus laevis oocytes injected with cRNA
# T4 sequence (Q8WXA8 28-447): T1 sequence (Q8WXA8 28-447)
# Assay: Two-electrode voltage clamp, oocytes injected with 5-HT3-C together with nicotinic ACh receptor subunits β1, β2 and β3;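 also: oocytes expressing the subunits for 2–14 days, voltage-clamped at −70 mV under continuous ND96 perfusion at room temperature, with water-injected oocytes serving as controls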
# Assay type: cell-based
# Conditions: >100 μM; 5-HT3-C with β1, β2 and β3 (0.2–0.25 ng); n=5
row,SMILES,sensitivity of oocytes to neuroactive compound
1,NCCCC(=O)O [GABA],insensitive
2,O=C(O)Cc1c[nH]c2ccc(O)cc12 [5-hydroxyindolacetic acid],insensitive
3,NC(=O)Cc1c[nH]c2ccc(O)cc12 [5-hydroxyindole 3-acetamide],insensitive
4,NCCc1c[nH]c2ccccc12 [tryptamine],insensitive
5,CC(=O)N[C@@H](CS)C(=O)O [N-acetyl-L-cysteine],insensitive
6,NC[C@H](O)c1ccc(O)c(O)c1 [norepinephrine],insensitive
7,NCCc1ccccc1 [β-phenylethylamine],insensitive
8,COc1cc2c(CCNC(C)=O)c[nH]c2cc1O [6-hydroxymelatonin],insensitive
9,NCCS(=O)(=O)O [taurine],insensitive
10,CC(=O)OCC[N+](C)(C)C [ACh],insensitive
11,N=C(N)NCCCCN [agmatine],insensitive
12,NCCC(=O)O [β-alanine],insensitive
13,"N[C@H](CC(=O)O)C(=O)O [L-aspartate, L- and D-aspartate]",insensitive
14,CC(=O)N[C@@H](CC(=O)O)C(=O)N[C@@H](CCC(=O)O)C(=O)O [acetyl-aspartyl-L-glutamic acid] (Ac-Asp-Glu-OH),insensitive
15,N[C@@H]1CONC1=O [d-cycloserine],insensitive
16,N[C@@H](CCC(=O)O)C(=O)O [glutamate],insensitive
17,CC(=O)NCCc1c[nH]c2ccc(O)cc12 [N-acetyl serotonin],insensitive

# The next lines start with the values.
row,sensitivity of oocytes to neuroactive compound,SMILES
1,insensitive,NCCc1ccc(O)cc1 [tyramine]
2,insensitive,N[C@@H](Cc1c[nH]c2ccccc12)C(=O)O [tryptophan]
3,insensitive,NC(=O)[C@@H](N)Cc1c[nH]c2ccccc12 [tryptophanamide]
4,insensitive,NCCc1c[nH]cn1 [histamine]
5,insensitive,O=C(O)c1cc2cc(O)ccc2[nH]1 [5-hydroxyindole 2-carboxylic acid]
6,insensitive,NCC(=O)O [glycine]
7,insensitive,COc1ccc2[nH]cc(CCNC(C)=O)c2c1 [melatonin]
8,insensitive,NCC(O)c1ccc(O)cc1 (centres unmarked) [octopamine]
9,insensitive,"NCCc1ccc(O)c(O)c1 [DA, dopamine]"
10,insensitive,NC/C=C\C(=O)O [cis-4 aminocrotonic acid]
